# Patent publication US5202315A, “Cephalosporin compounds” (Lucky, Ltd., priority 1989, dated 1993)
# Where two headings read alike, the source gives them in different places.
# Experiments:
# Assay in all cases: Antibacterial activity, MIC
# Assay type in all cases: cell-based
# [1] = tested on: Staphylococcus aureus ATCC 10537; conditions: ATCC10537, ATCC 10537, agar two-fold dilution, 37° C., 20 hours, read-out: MIC
# Description: (§1) Also, the in vitro antibacterial activity was determined by the by a two-fold dilution method as described below:
# (§2) That is, the two-fold serial dilutions of the compound were made dispersed in Muller-Hinton agar medium. 2 μl of standard test strain which had the 10^7 CFU per ml was inoculated on the medium, and was incubated at 37° C. for 20 hours.
# [2] = tested on: Shigella sonnei ATCC 11060
# Description: as §1, §2
# [3] = tested on: Bacillus megaterium ATCC 9885; conditions: Priestia megaterium, ATCC9885; ATCC 9885; agar two-fold dilution, 37° C., 20 hours; read-out: MIC
# Description: as §1, §2
# [4] = tested on: Acinetobacter calcoaceticus ATCC 15473; conditions: ATCC15473, ATCC 15473, agar two-fold dilution, 37° C., 20 hours, read-out: MIC
# Description: as §1, §2
# [5] = tested on: Shigella flexneri ATCC 11836; conditions: ATCC11836, agar two-fold dilution, 37° C., 20 hours
# Description: as §1, §2
# [6] = tested on: Klebsiella pneumoniae ATCC 10031; conditions: ATCC10031, ATCC 10031, agar two-fold dilution, 37° C., 20 hours, read-out: MIC
# Description: as §1, §2
# [7] = tested on: Escherichia coli ATCC 10536; conditions: ATCC10536, agar two-fold dilution, 37° C., 20 hours
# Description: as §1, §2
# [8] = tested on: Staphylococcus aureus ATCC 6538p; conditions: ATCC6538P, ATCC 6538p, agar two-fold dilution, 37° C., 20 hours, read-out: MIC
# Description: as §1, §2
# [9] = tested on: Streptococcus faecalis ATCC 29212; conditions: Enterococcus faecalis, ATCC29212; ATCC 29212; agar two-fold dilution, 37° C., 20 hours; read-out: MIC
# Description: as §1, §2
# [10] = tested on: Providencia rettgeri ATCC 9250; conditions: ATCC9250, agar two-fold dilution, 37° C., 20 hours
# Description: as §1, §2
# [11] = tested on: Morganella morganii ATCC 8076h; conditions: ATCC8076H, agar two-fold dilution, 37° C., 20 hours
# Description: as §1, §2
# [12] = tested on: Proteus mirabilis ATCC 25933; conditions: ATCC25933, ATCC 25933, agar two-fold dilution, 37° C., 20 hours, read-out: MIC
# Description: as §1, §2
# [13] = tested on: Pseudomonas aeruginosa ATCC 10145; conditions: ATCC10145, ATCC 10145, agar two-fold dilution, 37° C., 20 hours, read-out: MIC
# Description: as §1, §2
# [14] = tested on: Citrobacter freundii ATCC 8090; conditions: ATCC8090, ATCC 8090, agar two-fold dilution, 37° C., 20 hours, read-out: MIC
# Description: as §1, §2
# [15] = tested on: Bacillus cereus ATCC 11778; conditions: ATCC11778, ATCC 11778, agar two-fold dilution, 37° C., 20 hours, read-out: MIC
# Description: as §1, §2
# [16] = tested on: Enterobacter cloacae ATCC 27508; conditions: ATCC27508, ATCC 27508, agar two-fold dilution, 37° C., 20 hours, read-out: MIC
# Description: as §1, §2
# [17] = tested on: Proteus vulgaris ATCC 6059; conditions: ATCC6059, ATCC 6059, agar two-fold dilution, 37° C., 20 hours, read-out: MIC
# Description: as §1, §2
# [18] = tested on: Salmonella typhimurium ATCC 14028; conditions: Salmonella enterica; ATCC 14028; agar two-fold dilution, 37° C., 20 hours; read-out: MIC
# Description: as §1, §2
# [19] = tested on: Staphylococcus epidermidis ATCC 12228; conditions: ATCC12228, ATCC 12228, agar two-fold dilution, 37° C., 20 hours, read-out: MIC
# Description: as §1, §2
# [20] = tested on: Enterobacter aerogenes ATCC 29751; conditions: Klebsiella aerogenes, ATCC29751; ATCC 29751; agar two-fold dilution, 37° C., 20 hours; read-out: MIC
# Description: as §1, §2
# [21] = tested on: Escherichia coli ATCC 25922; conditions: ATCC25922, agar two-fold dilution, 37° C., 20 hours
# Description: as §1, §2
# [22] = tested on: Micrococcus luteus ATCC 9341; conditions: ATCC9341, ATCC 9341, agar two-fold dilution, 37° C., 20 hours, read-out: MIC
# Description: as §1, §2
# [23] = tested on: Pseudomonas aeruginosa ATCC 25619; conditions: ATCC25619, ATCC 25619, agar two-fold dilution, 37° C., 20 hours, read-out: MIC
# Description: as §1, §2
# [24] = tested on: Pseudomonas aeruginosa ATCC 27853; conditions: ATCC27853, ATCC 27853, agar two-fold dilution, 37° C., 20 hours, read-out: MIC
# Description: as §1, §2
# [25] = tested on: Serratia marcescens ATCC 27117; conditions: ATCC27117, ATCC 27117, agar two-fold dilution, 37° C., 20 hours, read-out: MIC
# Description: as §1, §2
# [26] = ATCC11060, ATCC 11060, agar two-fold dilution, 37° C., 20 hours, read-out: MIC
Structure (SMILES),MIC [1] [µg/mL],MIC [3] [µg/mL],MIC [4] [µg/mL],MIC [5] [µg/mL],MIC [7] [µg/mL],MIC [8] [µg/mL],MIC [9] [µg/mL],MIC [10] [µg/mL],MIC [11] [µg/mL],MIC [12] [µg/mL],MIC [13] [µg/mL],MIC [14] [µg/mL],MIC [15] [µg/mL],MIC [16] [µg/mL],MIC [17] [µg/mL],MIC [18] [µg/mL],MIC [19] [µg/mL],MIC [20] [µg/mL],MIC [22] [µg/mL],MIC [23] [µg/mL],further results
C=CC[n+]1c(N)cc(N)nc1SCC1=C(C(=O)[O-])N2C(=O)C(NC(=O)/C(=N\OC(C)(C)C(=O)O)c3csc(N)n3)C2SC1 (stereo not drawn) [Compound I-3],2,0.5,4,0.031,0.13,4,> 128,≤ 0.008,≤ 0.008,0.031,2,0.13,64,0.031,0.031,0.25,2,2,0.25,1,"MIC [2, 26]: 0.063 µg/mL; MIC [6]: 0.063 µg/mL; MIC [21]: 0.13 µg/mL; MIC [24]: 2 µg/mL; MIC [25]: 0.13 µg/mL"
C=CC[n+]1c(N)cc(N)nc1SCC1=C(C(=O)[O-])N2C(=O)C(NC(=O)/C(=N\OC(C)C(=O)O)c3csc(N)n3)C2SC1 (stereo not drawn) [Compound I-6],2,1,4,0.031,0.063,4,> 128,≤ 0.008,≤ 0.008,0.031,4,0.063,128,0.016,0.031,0.25,2,1,0.25,2,"MIC [2, 26]: 0.063 µg/mL; MIC [24]: 2 µg/mL; MIC [25]: 0.13 µg/mL"
C=CC[n+]1c(N)cc(N)nc1SCC1=C(C(=O)[O-])N2C(=O)C(NC(=O)/C(=N\OCC(=O)O)c3csc(N)n3)C2SC1 (stereo not drawn) [Compound I-9],2,0.25,8,0.031,0.031,4,> 128,≤ 0.008,≤ 0.008,0.031,16,0.063,64,≤ 0.008,0.031,0.13,1,1,0.25,2,"MIC [2, 26]: 0.063 µg/mL; MIC [6]: 0.031 µg/mL; MIC [21]: 0.031 µg/mL; MIC [24]: 4 µg/mL; MIC [25]: 0.063 µg/mL"
CCO/N=C(\C(=O)NC1C(=O)N2C(C(=O)[O-])=C(CSc3nc(N)cc(N)[n+]3CC)CSC12)c1csc(N)n1 (stereo not drawn) [Compound I-12],0.25,0.063,4,0.031,0.063,0.25,32,≤ 0.008,≤ 0.008,0.13,8,0.063,16,≤ 0.008,0.25,0.5,0.063,0.5,≤ 0.008,1,"MIC ([2]; ATCC11060, 20 h): 0.13 µg/mL; MIC [6]: ≤ 0.008 µg/mL; MIC [21]: 0.13 µg/mL; MIC [24]: 2 µg/mL; MIC [25]: 0.13 µg/mL"
CC(C)(O/N=C(\C(=O)NC1C(=O)N2C(C(=O)[O-])=C(CSc3nc(N)cc(N)[n+]3N)CSC12)c1nsc(N)n1)C(=O)O (stereo not drawn) [Compound I-13],8,1,4,0.063,0.13,16,> 128,≤ 0.008,0.016,0.13,2,0.13,> 128,0.031,0.13,0.5,4,1,1,2,MIC [6]: 0.063 µg/mL; MIC [21]: 0.13 µg/mL; MIC [24]: 1 µg/mL; MIC [25]: 0.25 µg/mL
CO/N=C(\C(=O)NC1C(=O)N2C(C(=O)[O-])=C(CSc3nc(N)cc(N)[n+]3N)CSC12)c1csc(N)n1 (stereo not drawn) [Compound I-19],0.5,0.13,4,0.016,0.13,0.25,32,≤ 0.008,0.008,0.13,2,0.13,8,0.016,0.016,0.25,0.063,0.25,0.016,0.5,"MIC [2, 26]: 0.063 µg/mL; MIC [6]: ≤ 0.008 µg/mL; MIC [21]: 0.13 µg/mL; MIC [24]: 1 µg/mL; MIC [25]: 0.25 µg/mL"
